What follows are compounds tested on HCV replicon (assay: HCV replicon replication assay (NPT ELISA) in Huh-7 replicon-containing cells). Settings: Hepatitis C virus, 72 h; HCV replicon in Huh-7 cells, three days incubation; read-out: EC50.
Assay type: cell-based
Outline: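 Replication was scored by capture ELISA of neomycin phosphotransferase, whose level tracks replicon replication, after graded compound treatment. The cells were Huh-7 harbouring an HCV-IRES/neo/EMCV-IRES/NS3–NS5B/3′-NTR replicon, plated at 6000-7500 cells/well and dosed 24 h later at 60-70% confluence; interferon alpha was the positive control.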

Compound | EC50 [nM]
C=C[C@@H]1C[C@]1(NC(=O)[C@@H]1C[C@@H](Oc2cc(-c3nc(C(C)C)cs3)nc3cc(OC)ccc23)CN1C(=O)[C@@H](CC(=O)N1CCCCC1)C(C)(C)C)C(=O)NS(=O)(=O)C1CC1 [Compound 230, (2S,4R)-1-((S)-2-tert-butyl-4-oxo-4-(piperidin-1-yl)butanoyl)-N-((1R)-1-(cyclopropyl-sulfonylcarbamoyl)-2-vinylcyclopropyl)-4-(2-(4-isopropylthiazol-2-yl)-7-methoxyquinolin-4-yloxy)pyrrolidine-2-carboxamide] | < 1000
C=C[C@@H]1C[C@]1(NC(=O)[C@@H]1C[C@@H](Oc2cc(-c3ccccc3)nc3c(OC)cccc23)CN1C(=O)[C@@H](CC(=O)N1CCCCC1)C(C)(C)C)C(=O)NS(=O)(=O)C1CC1 [Compound 231, (2S,4R)-1-((S)-2-tert-butyl-4-oxo-4-(piperidin-1-yl)butanoyl)-N-((2S)-1-(cyclopropyl-sulfonylcarbamoyl)-2-vinylcyclopropyl)-4-(8-methoxy-2-phenylquinolin-4-yloxy)pyrrolidine-2-carboxamide] | < 1000
C=C[C@@H]1C[C@]1(NC(=O)[C@@H]1C[C@@H](Oc2cc(-c3ccccc3)nc3cc(OC)ccc23)CN1C(=O)[C@@H](CC(=O)N1CCCCC1c1cc(-c2ccccc2)[nH]n1)C(C)(C)C)C(=O)NS(=O)(=O)C1CC1 (stereo partly drawn) [Compound 232, (2S,4R)-1-((2S)-2-tert-butyl-4-oxo-4-(2-(5-phenyl-1H-pyrazol-3-yl)piperidin-1-yl)butanoyl)-N-((2S)-1-(cyclopropyl-sulfonylcarbamoyl)-2-vinylcyclopropyl)-4-(7-methoxy-2-phenylquinolin-4-yloxy)pyrrolidine-2-carboxamide] | < 1000
C=C[C@@H]1C[C@]1(NC(=O)[C@@H]1C[C@@H](Oc2cc(-c3ccccc3)cc3cc(OC)ccc23)CN1C(=O)[C@@H](CC(=O)N1CCCCC1)C(C)(C)C)C(=O)NS(=O)(=O)C1CC1 [Compound 233, (2S,4R)-1-((S)-2-tert-butyl-4-oxo-4-(piperidin-1-yl)butanoyl)-N-((1R)-1-(cyclopropyl-sulfonylcarbamoyl)-2-vinylcyclopropyl)-4-(6-methoxy-3-phenylnaphthalen-1-yloxy)pyrrolidine-2-carboxamide] | < 1000
C=C[C@@H]1C[C@]1(NC(=O)[C@@H]1C[C@@H](Oc2cc(-c3ccccc3)nc3c4c(ccc23)CCC4)CN1C(=O)[C@@H](CC(=O)N1CCCCC1)C(C)(C)C)C(=O)NS(=O)(=O)C1CC1 [Compound 235, (2S,4R)-l-((S)-2-tert-butyl-4-oxo-4-(piperidin-l-yl)butanoyl)-N-((2S)-l-(cyclopropyl-sulfonylcarbamoyl)-2-vinylcyclopropyl)-4-(2-phenyl-8,9-dihydro-7H-cyclo-penta[h]quinolin-4-yloxy)pyrrolidine-2-carboxamide] | < 1000
C=C[C@@H]1C[C@]1(NC(=O)[C@@H]1C[C@@H](Oc2cc(-c3ccccn3)nc3c4c(ccc23)CCC4)CN1C(=O)[C@@H](CC(=O)N1CCCC(F)(F)C1)C(C)(C)C)C(=O)NS(=O)(=O)C1CC1 [Compound 236, (2S,4R)-1-((S)-2-tert-butyl-4-(3,3-difluoropiperidin-1-yl)-4-oxobutanoyl)-N-((2S)-1-(cyclopropyl-sulfonylcarbamoyl)-2-vinylcyclopropyl)-4-(2-(pyridin-2-yl)-8,9-dihydro-7H-cyclopenta[h]quino-lin-4-yloxy)pyrrolidine-2-carboxamide] | < 1000
C=C[C@@H]1C[C@]1(NC(=O)[C@@H]1C[C@@H](Oc2cc(-c3ccccn3)nc3c4c(ccc23)CCC4)CN1C(=O)[C@@H](CC(=O)N1CCC(C(F)(F)F)CC1)C(C)(C)C)C(=O)NS(=O)(=O)C1CC1 [Compound 237, (2S,4R)-1-((S)-2-tert-butyl-4-oxo-4-(4-(trifluoro-methyl)piperidin-1-yl)butanoyl)-N-((2S)-1-(cyclopropyl-sulfonylcarbamoyl)-2-vinylcyclopropyl)-4-(2-(pyridin-2-yl)-8,9-dihydro-7H-cyclopenta[h]quino-lin-4-yloxy)pyrrolidine-2-carboxamide] | < 1000

Reference: patent US9133115B2 (ACHILLION PHARMACEUTICALS, INC., priority 2008, dated 2015)
